Activity data for one compound are collected here from ChEMBL document CHEMBL3745677, “Discovery of 6-(4-{[5-Cyclopropyl-3-(2,6-dichlorophenyl)isoxazol-4-yl]methoxy}piperidin-1-yl)-1-methyl-1H-indole-3-carboxylic Acid: A Novel FXR Agonist for the Treatment of Dyslipidemia” (J Med Chem, 2015).

Type in all cases: functional, Zucker
The test system of assay [1] is Rattus norvegicus. The assay is described as follows: Antidyslipidemic activity in ZDF rat assessed as VLDL level at 0.3 mg/kg for 9 days by FPLC analysis (reference value: 35 mg/dL).
The subject of assay [2] is Rattus norvegicus. Kind of assay: Antidyslipidemic activity in ZDF rat assessed as LDL/IgHDL level at 0.3 mg/kg for 9 days by FPLC analysis (reference value: 17.8 mg/dL).
Assay [3] has as its system Rattus norvegicus. The assay is described as follows: Antidyslipidemic activity in ZDF rat assessed as HDL level at 0.3 mg/kg for 9 days by FPLC analysis (reference value: 48.3 mg/dL).

SMILES strings stand for the structures.

For `CN(CCOc1ccc(CC2SC(=O)NC2=O)cc1)c1ccccn1` (stereo not drawn) [ROSIGLITAZONE], the Activity in the assay on Rattus norvegicus [1] was found to be 26.3 mg/dL; with Rattus norvegicus [2], 19 mg/dL; in the assay on Rattus norvegicus [3] it was 61.3 mg/dL.
